Assay results as given in ChEMBL document CHEMBL5247653, “Discovery of Clinical Candidate ACT-777991, a Potent CXCR3 Antagonist for Antigen-Driven and Inflammatory Pathologies” (J Med Chem, 2023).
In brackets after ≈: the same amount, converted by molar mass. Activity calls are given as the source filed them. The calls are words filed in the database; no cut-off is given here.

Key:
[1] = Metabolic stability in dog hepatocytes assessed as intrinsic clearance per 10^6 cells at 1 uM by LC-MS/MS analysis; assay type: ADME, cell-based, Canis lupus familiaris, Hepatocyte
[2] = Oral bioavailability in Cynomolgus monkey at 1.25 mg/kg; assay type: ADME, organism-based, Macaca fascicularis; details: in vivo
[3] = Protein binding in dog plasma assessed as fraction unbound at 1 uM incubated for 6 hrs by rapid equilibrium dialysis based LC-MS/MS analysis; assay type: ADME, cell-free, Canis lupus familiaris
[4] = biological target: C-X-C chemokine receptor type 3 (Canis lupus familiaris, UniProt Q5KSK8); assay: Antagonist activity at dog CXCR3 expressed in CHO-K1 cells assessed as reduction in CXCL11 induced calcium flux by FLIPR method; assay type: cell-based
[5] = Metabolic stability in rat hepatocyte assessed as M2 metabolite formation at 1 uM and measured upto 15 mins in presence of NADPH regenerating system by LC-MS/MS analysis; assay type: ADME, cell-based; details: hepatocytes, 0.25 h
[6] = Metabolic stability in human hepatocyte assessed as M3 metabolite formation at 1 uM and measured upto 15 mins in presence of NADPH regenerating system by LC-MS/MS analysis; assay type: ADME, cell-based; details: hepatocytes, 0.25 h
[7] = biological target: T1, C-X-C chemokine receptor type 3 (Homo sapiens) (UniProt P49682); assay: Binding affinity to human CXCR3 expressed in CHO-K1 cell membrane assessed as dissociation rate constant (koff) using tritium-labeled ligand by […] assay; assay type: cell membranes; details: filed as antagonist
T1 sequence (whole entry): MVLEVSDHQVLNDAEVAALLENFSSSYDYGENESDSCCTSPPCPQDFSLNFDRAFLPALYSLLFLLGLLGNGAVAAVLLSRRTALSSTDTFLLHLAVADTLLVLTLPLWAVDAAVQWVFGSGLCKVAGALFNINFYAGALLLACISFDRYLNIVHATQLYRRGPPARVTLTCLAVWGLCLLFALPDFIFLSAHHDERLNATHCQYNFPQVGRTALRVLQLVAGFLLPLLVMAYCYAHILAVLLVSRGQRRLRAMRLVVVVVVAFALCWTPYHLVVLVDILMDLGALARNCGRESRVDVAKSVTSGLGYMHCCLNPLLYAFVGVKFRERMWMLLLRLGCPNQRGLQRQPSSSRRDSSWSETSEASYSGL

[8] = Total clearance in Wistar rat plasma at 0.5 mg/kg, iv; assay type: ADME, organism-based
[9] = Cardiotoxicity in human iPSC-derived cardiomyocytes assessed as slowing of spontaneous beating rate at 4.1 ug/ml; assay type: toxicity, cell-based; details: cardiac muscle cell, dose 4.1 µg/ml
[10] = biological target: C3a anaphylatoxin chemotactic receptor (Homo sapiens) (UniProt Q16581); assay: Binding affinity to C3aR1 (unknown origin) at 10 uM by radioligand binding assay
CYP2D6 = CYP2D6 (Homo sapiens, UniProt P10635); assay: […] recombinant human CYP2D6 mediated drug metabolism in human liver microsomes assessed as intrinsic clearance at 1 uM incubated for 45 mins in presence of NADPH regenerating system by LC-MS/MS analysis; assay type: ADME, Microsome; details: recombinant human CYP2D6, read-out: CLH
[11] = Metabolic stability in human hepatocytes assessed as intrinsic clearance per 10^6 cells at 1 uM by LC-MS/MS analysis; assay type: ADME, cell-based, Hepatocyte
[12] = Protein binding in rat plasma assessed as fraction unbound at 1 uM incubated for 6 hrs by rapid equilibrium dialysis based LC-MS/MS analysis; assay type: ADME, cell-free
[13] = Tmax in Cynomolgus monkey at 1.0 mg/kg,iv or 1.25 mg/kg, po; assay type: ADME, organism-based, Macaca fascicularis; details: in vivo
[14] = Metabolic stability in human hepatocyte assessed as M2 metabolite formation at 1 uM and measured upto 15 mins in presence of NADPH regenerating system by LC-MS/MS analysis; assay type: ADME, cell-based; details: hepatocytes, 0.25 h
[15] = Metabolic stability in rat hepatocytes assessed as intrinsic clearance per 10^6 cells at 1 uM by LC-MS/MS analysis; assay type: ADME, cell-based, Hepatocyte
[16] = Drug excretion in urine of Wistar rat assessed as unchanged drug at 1 mg/kg, iv; assay type: ADME, organism-based; details: read-out: Drug excretion
[17] = Metabolic stability in dog hepatocyte assessed as M2 metabolite formation at 1 uM and measured upto 15 mins in presence of NADPH regenerating system by LC-MS/MS analysis; assay type: ADME, cell-based, Canis lupus familiaris; details: hepatocytes, 0.25 h
[18] = Metabolic stability in human hepatocyte assessed as M1 metabolite formation at 1 uM and measured upto 15 mins in presence of NADPH regenerating system by LC-MS/MS analysis; assay type: ADME, cell-based; details: hepatocytes, 0.25 h
[19] = Metabolic stability in rat hepatocyte assessed as M1 metabolite formation at 1 uM and measured upto 15 mins in presence of NADPH regenerating system by LC-MS/MS analysis; assay type: ADME, cell-based; details: hepatocytes, 0.25 h
[20] = Cmax in Wistar rat at 3 mg/kg,iv or 3 mg/kg, po; assay type: ADME, organism-based; design: dose 3 mg/kg, route iv; details: in vivo
[21] = Protein binding in rabbit plasma assessed as fraction unbound at 0.1 to 300 ug/ml using 14C-labeled ligand by rapid equilibrium dialysis; assay type: ADME, cell-free, Oryctolagus cuniculus; details: at 0.1 to 300 µg/mL, dose 0.1-300 µg/ml
Cytochrome P450 2D6 = Cytochrome P450 2D6 (Homo sapiens, UniProt P10635); assay: Competitive inhibition of CYP2D6 (unknown origin); assay type: ADME
[22] = Clearance in Wistar rat at 3 mg/kg,iv or 3 mg/kg, po; assay type: ADME, organism-based; details: in vivo
[23] = biological target: T2, C-X-C chemokine receptor type 3 (Mus musculus, UniProt O88410); assay: Antagonist activity at mouse CXCR3 expressed in CHO-K1 cells assessed as reduction in CXCL10 induced calcium flux by FLIPR method; assay type: cell-based
T2 sequence (O88410 whole entry): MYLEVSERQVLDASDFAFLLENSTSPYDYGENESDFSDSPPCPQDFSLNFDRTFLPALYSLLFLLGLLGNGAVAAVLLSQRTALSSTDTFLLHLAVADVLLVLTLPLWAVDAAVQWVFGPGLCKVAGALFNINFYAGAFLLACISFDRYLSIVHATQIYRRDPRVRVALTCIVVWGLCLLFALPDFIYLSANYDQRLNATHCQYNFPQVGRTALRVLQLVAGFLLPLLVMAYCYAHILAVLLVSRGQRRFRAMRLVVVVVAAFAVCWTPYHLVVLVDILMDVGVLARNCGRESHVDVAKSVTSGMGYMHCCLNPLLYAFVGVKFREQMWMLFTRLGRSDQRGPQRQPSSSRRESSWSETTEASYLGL

[24] = biological target: T1, C-X-C chemokine receptor type 3 (Homo sapiens); assay: Binding affinity to human CXCR3 expressed in CHO-K1 cell membrane assessed as […] (Kon) using tritium-labeled ligand by […] assay; assay type: cell membranes; details: filed as antagonist
[25] = Dissociation constant, pKa of compound; assay type: physicochemical
[26] = biological target: T3, Voltage-gated inwardly rectifying potassium channel KCNH2 (Homo sapiens, UniProt Q12809); assay: (§1) Inhibition of human ERG K+ currents by GLP assay; assay type: toxicity
hERG (KCNH2) = hERG (KCNH2) (Homo sapiens, UniProt Q12809); assay: as §1; assay type: toxicity; details: human
Cytochrome P450 3A4 = Cytochrome P450 3A4 (Homo sapiens, UniProt P08684); assay: Competitive inhibition of CYP3A4 (unknown origin); assay type: ADME
[27] = biological target: T3, Voltage-gated inwardly rectifying potassium channel KCNH2; assay: Inhibition of human ERG stably expressed in CHO cells at -80 mV holding voltage by automated QPatch electrophysiological assay; assay type: toxicity, cell-based
[28] = Cmax in LPS-induced DBA/1 mouse plasma at 0.02 microg/g, po bid preincubated for 3 days followed by LPS stimulation for 30 mins and measured after 72 hrs by flow cytometry; assay type: ADME, organism-based; design: time 6 day, dose 0.02 µg/g, route po; details: 0.02 µg/g

T3 sequence (Q12809 whole entry): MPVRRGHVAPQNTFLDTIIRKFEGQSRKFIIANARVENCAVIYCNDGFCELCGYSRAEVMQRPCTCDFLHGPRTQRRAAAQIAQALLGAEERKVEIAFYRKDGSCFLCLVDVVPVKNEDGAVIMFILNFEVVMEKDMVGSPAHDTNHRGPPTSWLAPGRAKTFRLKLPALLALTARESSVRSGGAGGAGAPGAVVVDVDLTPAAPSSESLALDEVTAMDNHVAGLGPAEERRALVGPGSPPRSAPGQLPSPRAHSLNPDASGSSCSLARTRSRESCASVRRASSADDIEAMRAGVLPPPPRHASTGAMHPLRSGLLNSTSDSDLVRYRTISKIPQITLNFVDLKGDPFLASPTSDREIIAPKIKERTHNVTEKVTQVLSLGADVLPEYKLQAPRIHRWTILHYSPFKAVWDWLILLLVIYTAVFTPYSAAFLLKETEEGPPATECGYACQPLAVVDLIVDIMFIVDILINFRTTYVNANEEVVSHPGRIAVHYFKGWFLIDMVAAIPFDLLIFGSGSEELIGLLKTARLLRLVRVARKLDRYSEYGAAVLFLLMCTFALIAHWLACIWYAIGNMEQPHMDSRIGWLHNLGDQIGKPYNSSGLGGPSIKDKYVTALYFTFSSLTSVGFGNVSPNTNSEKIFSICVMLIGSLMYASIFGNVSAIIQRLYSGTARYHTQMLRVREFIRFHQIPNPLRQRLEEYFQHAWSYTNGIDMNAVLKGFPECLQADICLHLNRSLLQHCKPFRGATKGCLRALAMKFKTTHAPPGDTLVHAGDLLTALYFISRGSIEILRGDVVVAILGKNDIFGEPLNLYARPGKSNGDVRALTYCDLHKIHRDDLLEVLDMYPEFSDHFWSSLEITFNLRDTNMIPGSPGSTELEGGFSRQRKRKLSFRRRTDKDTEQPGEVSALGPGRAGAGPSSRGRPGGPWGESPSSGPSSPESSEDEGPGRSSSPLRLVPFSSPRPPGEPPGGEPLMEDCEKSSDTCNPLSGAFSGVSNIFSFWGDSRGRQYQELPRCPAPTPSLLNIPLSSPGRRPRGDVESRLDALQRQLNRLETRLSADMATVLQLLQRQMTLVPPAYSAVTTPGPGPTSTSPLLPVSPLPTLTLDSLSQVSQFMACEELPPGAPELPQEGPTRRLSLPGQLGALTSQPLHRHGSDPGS
Sequence of Cytochrome P450 3A4 (P08684 whole entry): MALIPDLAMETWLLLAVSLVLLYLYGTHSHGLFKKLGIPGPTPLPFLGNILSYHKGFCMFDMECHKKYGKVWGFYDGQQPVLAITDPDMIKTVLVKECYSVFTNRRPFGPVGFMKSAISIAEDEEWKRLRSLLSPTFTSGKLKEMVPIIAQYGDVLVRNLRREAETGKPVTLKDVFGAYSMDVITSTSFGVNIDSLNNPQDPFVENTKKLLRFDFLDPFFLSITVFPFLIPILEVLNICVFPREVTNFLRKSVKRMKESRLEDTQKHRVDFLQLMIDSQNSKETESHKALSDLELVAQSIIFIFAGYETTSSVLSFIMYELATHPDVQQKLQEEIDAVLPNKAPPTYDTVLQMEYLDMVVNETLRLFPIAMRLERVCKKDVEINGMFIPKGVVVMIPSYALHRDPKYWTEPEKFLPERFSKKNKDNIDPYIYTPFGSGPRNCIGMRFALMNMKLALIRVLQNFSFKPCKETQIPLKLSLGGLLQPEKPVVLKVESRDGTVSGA
Sequence of hERG (KCNH2) (Q12809 whole entry): as the sequence (Q12809 whole entry) above
Sequence of C3a anaphylatoxin chemotactic receptor (Homo sapiens) (Q16581 whole entry): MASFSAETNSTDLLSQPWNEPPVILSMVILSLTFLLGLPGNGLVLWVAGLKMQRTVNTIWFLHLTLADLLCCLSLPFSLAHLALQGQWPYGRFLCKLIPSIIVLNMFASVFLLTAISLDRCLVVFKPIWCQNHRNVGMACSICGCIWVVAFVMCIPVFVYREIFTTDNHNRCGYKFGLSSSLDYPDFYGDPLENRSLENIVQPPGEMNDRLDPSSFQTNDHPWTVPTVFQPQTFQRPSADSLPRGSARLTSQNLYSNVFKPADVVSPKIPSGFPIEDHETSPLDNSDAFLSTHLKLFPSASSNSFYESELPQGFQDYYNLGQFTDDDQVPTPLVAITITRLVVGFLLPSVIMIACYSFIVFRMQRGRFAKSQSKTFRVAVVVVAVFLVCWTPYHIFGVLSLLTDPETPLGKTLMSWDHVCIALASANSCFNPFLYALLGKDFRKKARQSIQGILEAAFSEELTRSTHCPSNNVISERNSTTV
Sequence of CYP2D6 (P10635 whole entry): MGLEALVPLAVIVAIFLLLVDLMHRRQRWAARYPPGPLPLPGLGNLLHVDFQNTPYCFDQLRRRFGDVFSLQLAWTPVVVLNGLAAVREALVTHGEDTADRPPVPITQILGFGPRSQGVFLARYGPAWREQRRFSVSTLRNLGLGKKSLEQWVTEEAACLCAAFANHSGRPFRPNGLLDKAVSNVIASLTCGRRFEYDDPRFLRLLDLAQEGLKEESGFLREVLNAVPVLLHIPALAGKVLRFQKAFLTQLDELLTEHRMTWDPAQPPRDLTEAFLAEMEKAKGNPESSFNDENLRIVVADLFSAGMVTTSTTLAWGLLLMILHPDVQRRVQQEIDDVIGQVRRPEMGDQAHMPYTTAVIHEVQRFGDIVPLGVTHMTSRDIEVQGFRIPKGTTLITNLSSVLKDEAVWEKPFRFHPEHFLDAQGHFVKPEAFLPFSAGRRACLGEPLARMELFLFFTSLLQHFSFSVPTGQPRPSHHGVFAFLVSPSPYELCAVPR
Sequence of Cytochrome P450 2D6 (P10635 whole entry): as above
Sequence of C-X-C chemokine receptor type 3 (Canis lupus familiaris, UniProt Q5KSK8) (Q5KSK8 whole entry): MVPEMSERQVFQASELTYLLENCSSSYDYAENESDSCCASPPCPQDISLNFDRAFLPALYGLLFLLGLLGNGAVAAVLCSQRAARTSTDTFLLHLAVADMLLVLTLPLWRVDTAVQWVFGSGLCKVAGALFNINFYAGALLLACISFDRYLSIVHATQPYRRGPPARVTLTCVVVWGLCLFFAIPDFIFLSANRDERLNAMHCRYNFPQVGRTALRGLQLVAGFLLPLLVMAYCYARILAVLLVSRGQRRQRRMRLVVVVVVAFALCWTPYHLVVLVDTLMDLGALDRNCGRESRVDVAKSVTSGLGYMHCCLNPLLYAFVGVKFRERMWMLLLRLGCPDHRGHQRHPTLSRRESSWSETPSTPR

With `Cc1ncn(CC(=O)N2CCN(c3sc(C(F)(F)F)nc3-c3cnc(C(F)(F)F)nc3)C[C@H]2CCO)n1` the CLH [1] was under 2 µL/min/mg, the bioavailability [2] was 92% and the fraction unbound at 6 h, 1 µM [3] was 0.34. The IC50 [4] was 0.004 µM, the Stability [5] was “Unstable” and the Stability [6] was “Unstable”. For the same compound, the Kdiss [7] was 0.03 s⁻¹, the clearance [8] was 14 mL/min/kg and the Activity [9] was “Toxic”. For the same compound, the Activity [10] was “inactive”, the microsomal CLint at 1 µM (CYP2D6) was under 0.04 µL/min/mg and the CLH [11] was under 2 µL/min/mg. The fraction unbound at 6 h, 1 µM [12] was 0.09, the Tmax [13] was 1.5 h and the Stability [14] was “Unstable”. For the same compound, the CLH [15] was under 2 µL/min/mg, the dose excreted [16] was 4.4% and the Stability [17] was “Unstable”. The Stability [18] was “Unstable”, the Stability [19] was “Unstable” and the Cmax [20] was 910 ng/mL. It also gave a fraction unbound [21] of 0.1, an IC50 (Cytochrome P450 2D6) of over 50 µM and a clearance [22] of 9.5 mL/min/kg. For the same compound, the IC50 [23] was 0.0015 µM, the ka [24] was 6.6 10^6/M/s and the pKa [25] was 2.2. The IC50 [26] was 15.4 µM, the IC20 (hERG (KCNH2)) was 3 µg/mL (≈ 5.45 µM) and the IC50 (Cytochrome P450 3A4) was over 50 µM. It also gave an IC50 [27] of 26 µM and a Cmax [28] of 173 ng/mL.
